Laboratory results taken from patent publication US12728147B2, “Composition for preventing or treating inflammatory disease comprising hydrolysis extract of pulsatilla koreana and anemone raddeana as active ingredient” (priority 2020, dated 2026).
Read-outs that look alike come from different tables or passages of the source.

Assays:
[1] = tested on: rats with edema induced with carrageenan; format: in vivo; conditions: for Average edema reduction percent: average of the reduction percent values after 2, 3 and 4 hours
Experimental: Each experimental group was composed of three Wistar rats, and the edema was formed by subplantar injection of 0.1 ml of a 1% (w/v) lambda carrageenan solution to the left hind paw of the rats. By the same method, 0.1 ml of physiological saline was injected into the right hind paw. […] For the control, 2 ml of physiological saline was used. As for Comparative Example 1, the group was orally administered with 10 mg/kg indomethacin. The medicinal effect was assayed as percentage (%) by measuring the volume of edema from 2 hours to 4 hours in 1 hour units after carrageenan administration. [{1−S/C}×100] (S: edema volume in the preparation administration group, C: edema volume in the carrageenan administration group) The volume of edema was measured by water plethysmography. As for Preparation 16, the anti-inflammatory effect was observed by direct injection of […] into the point of carrageenan injection on the rats. This method was used considering that in the vertebral skeletal diseases, drugs are often directly injected into affected areas in clinical practice, and the method can also be applied to the herbal acupuncture in oriental medicine. In the present invention, 0.2 ml of Preparation 14 was selected and directly injected twice at an interval of 30 minutes to the point of carrageenan injection on the left hind paw of the rats (Comparative Example 6). That is, the injection was conducted at 150 minutes and 180 minutes after carrageenan injection, and the anti-inflammatory assay was conducted 240 minutes (4 hours after carrageenan injection). Comparative Example 2 was a Preparation of 1 mg of HcolA1 mixed with 1 mg of HcolA. The control was used for a physiological saline administration group.
The edema size reduction percent (%) was expressed as the ratio of the edema size by each preparation after each hour relative to the size of edema (control) by carrageenan injection after each hour as shown below, and the average reduction percent of edema was expressed as an average value of the reduction percent values of each preparation after 2, 3, or 4 hours. Edema size reduction percent (%)={1−(edema size by each preparation/edema size by control)}×100

[2] = tested on: human umbilical vein endothelial cells (HUVECs); conditions: cited from earlier work
[3] = tested on: carrageenan-induced rat paw inflammation; conditions: literature report; cited from earlier work

COc1ccc2c(c1)c(CC(=O)O)c(C)n2C(=O)c1ccc(Cl)cc1 [Comparative Example 1, Indomethacin]
Edema size reduction percent, 2 hours ([1]; 2 hours after carrageenan, relative to control): 0.012(63) % | Edema size reduction percent, 3 hours ([1]; 3 hours after carrageenan, relative to control): 0.043(64) % | Edema size reduction percent, 4 hours ([1]; 4 hours after carrageenan, relative to control (Comparative Example 6: direct injection into point of carrageenan injection)): 0.023(63) % | Edema size over time (hour) after treatment, 4 hours ([1]; 4 hours after carrageenan, 1 ml i.p. 1 h before edema induction (Comparative Example 1 oral; Comparative Example 6: 0.2 ml injected directly twice at 150 and 180 min), mean): 0.321 | Average edema reduction percent [1]: (63.3) % | Average edema reduction percent ([1]; listed as indomethacin): 63.3%

COC1C(=O)Oc2ccccc2C1(COC(=O)C=C(C)C)OC (centres unmarked) [4-senecioyloxymethyl-3,4-dimethoxycoumarin]
Inhibition of HUVEC angiogenesis ([2]; at 1 μg/ml): 53%

C[C@@H]1O[C@@H](O[C@H]2[C@H](O[C@H]3CC[C@]4(C)[C@H]5CC=C6[C@@H]7CC(C)(C)CC[C@]7(C(=O)O[C@@H]7O[C@H](CO[C@@H]8O[C@H](CO)[C@@H](O[C@@H]9O[C@@H](C)[C@H](O)[C@@H](O)[C@H]9O)[C@H](O)[C@H]8O)[C@@H](O)[C@H](O)[C@H]7O)CC[C@@]6(C)[C@]5(C)CC[C@H]4C3(C)C)OC[C@H](O[C@@H]3O[C@H](CO)[C@@H](O)[C@H](O)[C@H]3O)[C@@H]2O)[C@H](O)[C@H](O)[C@H]1O [HcolE, hederacolchiside E]
Anti-inflammatory effect on carrageenan-induced rat paw inflammation [3]: insignificant

COc1cc([C@@H]2c3cc4c(cc3C[C@H]3COC(=O)[C@@H]32)OCO4)cc(OC)c1OC [deoxypodophyllotoxin]
Inhibition of HUVEC angiogenesis ([2]; at a concentration of 3 ng/ml): 100%

CCC[C@H](O)CC/C=C/C=C/C#CC#C/C=C\CO [bupleurotoxin]
Inhibition of HUVEC angiogenesis ([2]; at a concentration of 30 μg/ml): 100%

C[C@@H]1O[C@@H](O[C@H]2[C@H](O[C@H]3CC[C@]4(C)[C@H]5CC=C6[C@@H]7CC(C)(C)CC[C@]7(C(=O)O)CC[C@@]6(C)[C@]5(C)CC[C@H]4C3(C)C)OC[C@H](O[C@@H]3O[C@H](CO)[C@@H](O)[C@H](O)[C@H]3O)[C@@H]2O)[C@H](O)[C@H](O)[C@H]1O [hederacolchiside A1]
Inhibition of HUVEC angiogenesis ([2]; at a concentration of 2 μg/ml): 100%

CCC[C@H](CC/C=C/C=C/C#CC#C/C=C\CO)OC(C)=O [acetylbupleurotoxin]
Inhibition of HUVEC angiogenesis ([2]; at a concentration of 30 μg/ml): 100%

C[C@@H]1O[C@@H](O[C@H]2[C@H](O[C@H]3CC[C@@]4(C)[C@@H](CC[C@]5(C)[C@@H]4CC=C4[C@@H]6CC(C)(C)CC[C@]6(C(=O)O)CC[C@]45C)[C@]3(C)CO)OC[C@H](O[C@@H]3O[C@H](CO)[C@@H](O)[C@H](O)[C@H]3O)[C@@H]2O)[C@H](O)[C@H](O)[C@H]1O [hederacolchiside A]
Inhibition of HUVEC angiogenesis ([2]; at a concentration of 2 μg/ml): did not show such activity

C[C@@H]1O[C@@H](O[C@H]2[C@H](O[C@H]3CC[C@@]4(C)[C@@H](CC[C@]5(C)[C@@H]4CC=C4[C@@H]6CC(C)(C)CC[C@]6(C(=O)O[C@@H]6O[C@H](CO[C@@H]7O[C@H](CO)[C@@H](O[C@@H]8O[C@@H](C)[C@H](O)[C@@H](O)[C@H]8O)[C@H](O)[C@H]7O)[C@@H](O)[C@H](O)[C@H]6O)CC[C@]45C)[C@]3(C)CO)OC[C@H](O[C@@H]3O[C@H](CO)[C@@H](O)[C@H](O)[C@H]3O)[C@@H]2O)[C@H](O)[C@H](O)[C@H]1O [HcolF, hederacolchiside F]
Anti-inflammatory effect on carrageenan-induced rat paw inflammation [3]: confirmed in a predetermined range
